Consider one substance from paper PMC3542833 (Journal of the American Chemical Society, 2012).

As a reminder, the IC50 is the concentration needed to halve the response being measured. One may read the GI50 as the concentration at which growth is held to half of that of the control.

For experiment [1], the system named is tubulin. Nature of the experiment: tubulin assembly assay. It is filed as biochemical. The conditions noted are these: read-out: Inhibition of Tubulin Assembly IC50±SD; enantiopure analogues.
Experiment [2] concerns tubulin. Nature of the experiment: inhibition of colchicine binding. The conditions noted are these: 5 μM inhibitor; enantiopure analogues.
A further experiment deals with NCI-60. The experiment in a line: NCI 60-cell screen. It is filed as cell-based. The conditions noted are these: read-out: NCI-60 Mean GI50; mean over NCI-60 panel; enantiopure analogues.
Experiment [3] deals with tubulin. The conditions noted are these: previous finding; ref 5a; cited from earlier work.

As to (+)-chamaecypanone C [(+)-2], in the experiment with tubulin [1], the IC50 was found to be 2200 ± 300 nM. The “% Inhibition of Colchicine Binding ± SD” value in the experiment on tubulin [2] stood at 30±4.0%. In addition, the GI50 with NCI-60 was 280 nM. The “activity of chamaecypanone C enantiomers (in words)” value with tubulin [3] is “active”.
